# Laboratory results from patent US5583142A, “Analgesic and nootropic drugs” (priority 1992, dated 1996).
# Several values for one entry are separate records, joined by “and”; a condition that tells them apart may be missing. Equal values may be shown once. Where a name gives a salt, the structure may show the parent alone. Read-outs that look alike come from different tables or passages of the source.
# Legend:
# [1] = mouse rota-rod test (16 r.p.m.)
# Description: All products tested to detect their antinociceptive activity had been previously tested by the rota-rod test to determine their maximum utilizable dose in analgesic tests. In fact, by this test it is possible to determine the highest dose of drug not impairing the normal performance of animals in a test that simultaneously evaluates motor coordination, equilibrium, resistance to fatigue, and muscle strength. This test is meant to evaluate the capability of mice to stay balanced on a rotating rod [cf. Vaught et al., Neuropharmacology, 24 (3) 211-216 (1985)].
# The calculated doses were those used in the two analgesic tests on mice.
# [2] = assay type: in vivo, mouse
# Protocol: (§1) The analgesic action was detected in mouse, rat, guinea pig and dog. The mouse was subjected to hot plate and writhing tests; the rat to tail-flick and paw-pressure tests; the guinea pig to paw-pressure test only; the dog to the test described by Vainio et al. [J. Vet. Pharmacol. Ther., 12, 225-231 (1989)] using an electric stimulation. Consequently, the claimed compounds were tested with pain being induced by stimuli of different nature: thermal (hot plate and tail flick), chemical (writhing by acetic acid), mechanical (paw pressure) and electrical (cutaneous stimulation).
# (§2) Potency, efficacy and toxicity of SM21, PG9 and SM32 in comparison with
# (§3) four principal reference analgesic drugs tested in mouse. As analgesic
# [3] = in vivo; conditions: mouse
# Description: as §2, §3
# [4] = mouse acetic acid writhing test; assay type: in vivo; conditions: for efficacy in writhing test, in words / number of writhes / Efficacy as analgesic (Morphine = 100) / percent inhibition: mouse; for Efficacy as analgesic (Morphine = 100) / percent inhibition: writhing; for ED50: mouse writhing
# Protocol: as §1
# The claimed molecules, chosen as examples, were also assayed in mice by the writhing test (Table 4). The test is meant to evaluate the products capability to prevent mice writhes ensuing abdominal pains caused by i.p. injection of a 0.6% aqueous solution of acetic acid.
# Acetic acid solution = 0.6% v/v.
# [5] = rat paw-pressure test; assay type: in vivo
# Protocol: as §1
# (§4) As already mentioned, the claimed products were assayed also in rat by the paw-pressure and tail-flick tests.
# (§5) Both tests were carried out with the max. doses not impairing the rats normal behaviour. […] The painful stimulus utilized in the paw-pressure test involved the animal consciousness to a much greater extent than the stimulus used in the tail-flick test, in fact, the type and anatomic localization of the latter mainly involved a spinal response.
# (§6) Both tests on rats were carried out with the max. doses not altering the behaviour of the treated animals.
# [6] = rat tail-flick test; assay type: in vivo
# Protocol: as §1, §4, §5, §6
# The test was performed using th
# [7] = 45 mg/kg s.c., 15 min after treatment
# [8] = 45 mg/kg s.c., 30 min after treatment
# [9] = 45 mg/kg s.c., 45 min after treatment
# [10] = 50 mg/kg s.c., 15 min after treatment
# [11] = 50 mg/kg s.c., 30 min after treatment
# [12] = 50 mg/kg s.c., 45 min after treatment
# [13] = 25 mg/kg i.p., 15 min after treatment
# [14] = 25 mg/kg i.p., 30 min after treatment
# [15] = 25 mg/kg i.p., 45 min after treatment
# [16] = 100 mg/kg i.p., 15 min after treatment
# [17] = 100 mg/kg i.p., 30 min after treatment
# [18] = 100 mg/kg i.p., 45 min after treatment
# [19] = 20 mg/kg i.p., 15 min after treatment
# [20] = 20 mg/kg i.p., 30 min after treatment
# [21] = 20 mg/kg i.p., 45 min after treatment
smiles,measurement,setting,value
"CN(C)CCCN1c2ccccc2CCc2ccc(Cl)cc21 [Clomipramine HCl, reference compound]",rota-rod performance (number of falls in 30 s),"[1]; 25 mg/kg s.c., 15 min after treatment",2.4 ± 0.5 falls in 30 s
same,rota-rod performance (number of falls in 30 s),"[1]; 25 mg/kg s.c., 30 min after treatment",2.1 ± 0.6 falls in 30 s
same,rota-rod performance (number of falls in 30 s),"[1]; 25 mg/kg s.c., 45 min after treatment",2.1 ± 0.6 falls in 30 s
same,rota-rod performance (number of falls in 30 s),[1]; [7],2.8 ± 0.4 falls in 30 s
same,rota-rod performance (number of falls in 30 s),[1]; [8],3.6 ± 0.4 falls in 30 s
same,rota-rod performance (number of falls in 30 s),[1]; [9],3.5 ± 0.6 falls in 30 s
same,rota-rod performance (number of falls in 30 s),[1]; [10],1.8 ± 0.4 falls in 30 s
same,rota-rod performance (number of falls in 30 s),[1]; [11],1.8 ± 0.4 falls in 30 s
same,rota-rod performance (number of falls in 30 s),[1]; [12],1.5 ± 0.4 falls in 30 s
same,rota-rod performance (number of falls in 30 s),"[1]; 60 mg/kg s.c., 15 min after treatment",1.5 ± 0.4 falls in 30 s
same,rota-rod performance (number of falls in 30 s),"[1]; 60 mg/kg s.c., 30 min after treatment",2.6 ± 0.3 falls in 30 s
same,rota-rod performance (number of falls in 30 s),"[1]; 60 mg/kg s.c., 45 min after treatment",3.1 ± 0.5 falls in 30 s
same,NOAEL,"[1]; mouse, in vivo, sc",20.2 mg/kg
same,ED50 compared with claimed compounds,[2]; mouse hot plate,equivalent to those of the claimed compounds
same,analgesic efficacy / degree of analgesia compared with claimed compounds,[2]; mouse hot plate,much lower degree of analgesia
same,"Efficacy as analgesic (Morphine = 100), AUC (Area Under Curve)","[2]; mouse, in vivo",17
same,"Efficacy as analgesic (Morphine = 100), M.E. (Maximum Analgesic Effect)","[2]; mouse, in vivo",19
same,hot-plate latency,"[2]; mouse, 20 mg/kg i.p., 15 min after treatment",24.8 ± 2.8 s
same,hot-plate latency,"[2]; mouse, 20 mg/kg i.p., 30 min after treatment",25.2 ± 2.2 s
same,hot-plate latency,"[2]; mouse, 20 mg/kg i.p., 45 min after treatment",23.2 ± 2.1 s
same,hot-plate latency,"[2]; mouse, 20 mg/kg s.c., 15 min after treatment",17.4 ± 1.1 s
same,hot-plate latency,"[2]; mouse, 20 mg/kg s.c., 30 min after treatment",19.3 ± 0.9 s
same,hot-plate latency,"[2]; mouse, 20 mg/kg s.c., 45 min after treatment",16.5 ± 0.8 s
same,LD50,[3]; iv,44 mg/kg and 125 µmol/kg
same,"efficacy in writhing test, in words",[4],far less efficacious
same,number of writhes,[4]; 20 mg/kg s.c.,18.2 ± 2.1
same,Efficacy as analgesic (Morphine = 100),[4]; 20 mg/kg s.c.,63
same,percent inhibition,[4]; 20 mg/kg s.c.,46.8%
same,ED50,[4]; sc,9.7 mg/kg and 27.6 µmol/kg
same,"activity in paw-pressure test, in words",[5],almost equivalent analgesia
same,paw-pressure,[5]; [13],85.0 ± 6.8 g
same,paw-pressure,[5]; [14],99.0 ± 6.6 g
same,paw-pressure,[5]; [15],91.7 ± 7.4 g
same,"activity in tail-flick test, in words",[6],inactive
same,tail-flick,[6]; [13],2.9 ± 0.2 s
same,tail-flick,[6]; [14],2.6 ± 0.1 s
same,tail-flick,[6]; [15],2.6 ± 0.2 s
O=C(c1ccccc1)c1ccc2n1CCC2C(=O)O (stereo not shown) [Ketorolac Trometamine],"Efficacy as analgesic (Morphine = 100), AUC (Area Under Curve)","[2]; mouse, in vivo",46
same,"Efficacy as analgesic (Morphine = 100), M.E. (Maximum Analgesic Effect)","[2]; mouse, in vivo",55
same,hot-plate latency,"[2]; mouse, 175 mg/kg i.p., 15 min after treatment",26.5 ± 3.4 s
same,hot-plate latency,"[2]; mouse, 175 mg/kg i.p., 30 min after treatment",19.6 ± 1.4 s
same,hot-plate latency,"[2]; mouse, 175 mg/kg i.p., 45 min after treatment",17.7 ± 1.5 s
same,hot-plate latency,"[2]; mouse, 175 mg/kg s.c., 15 min after treatment",16.3 ± 1.1 s
same,hot-plate latency,"[2]; mouse, 175 mg/kg s.c., 30 min after treatment",15.0 ± 1.2 s
same,hot-plate latency,"[2]; mouse, 175 mg/kg s.c., 45 min after treatment",15.1 ± 1.6 s
same,"activity on hot plate, s.c. administration","[2]; mouse, s.c.",inactive
same,LD50,[3]; ip,1260 µmol/kg
same,ED50,[4]; ip,8.3 mg/kg and 22 µmol/kg
same,"efficacy in writhing test, in words",[4],higher than by morphine
same,number of writhes,[4]; 10 mg/kg i.p.,6.3 ± 1.4
same,number of writhes,[4]; 175 mg/kg i.p.,0.3 ± 0.3
same,Efficacy as analgesic (Morphine = 100),[4]; 10 mg/kg i.p.,110
same,percent inhibition,[4]; 10 mg/kg i.p.,81.6%
same,Efficacy as analgesic (Morphine = 100),[4]; 175 mg/kg i.p.,133
same,percent inhibition,[4]; 175 mg/kg i.p.,99.1%
same,"activity in paw-pressure test, in words",[5],almost equivalent analgesia
same,paw-pressure,[5]; [16],59.3 ± 5.6 g
same,paw-pressure,[5]; [17],97.4 ± 6.2 g
same,paw-pressure,[5]; [18],74.6 ± 5.8 g
same,"activity in tail-flick test, in words",[6],inactive
same,tail-flick,[6]; [16],3.3 ± 0.2 s
same,tail-flick,[6]; [17],3.2 ± 0.2 s
same,tail-flick,[6]; [18],2.6 ± 0.3 s
"CCC(Sc1ccccc1)C(=O)O[C@H]1C[C@H]2CC[C@@H](C1)N2C (stereo partly drawn) [SM-32, 3α-Tropanyl 2-(phenylthio)-butyrate]",rota-rod performance (number of falls in 30 s),"[1]; 40 mg/kg s.c., 15 min after treatment",1.2 ± 0.6 falls in 30 s
same,rota-rod performance (number of falls in 30 s),"[1]; 40 mg/kg s.c., 30 min after treatment",1.4 ± 0.3 falls in 30 s
same,rota-rod performance (number of falls in 30 s),"[1]; 40 mg/kg s.c., 45 min after treatment",1.2 ± 0.4 falls in 30 s
same,rota-rod performance (number of falls in 30 s),[1]; [7],2.0 ± 0.3 falls in 30 s
same,rota-rod performance (number of falls in 30 s),[1]; [8],2.3 ± 0.3 falls in 30 s
same,rota-rod performance (number of falls in 30 s),[1]; [9],2.0 ± 0.5 falls in 30 s
same,rota-rod performance (number of falls in 30 s),[1]; [10],1.8 ± 0.4 falls in 30 s
same,rota-rod performance (number of falls in 30 s),[1]; [11],2.6 ± 0.6 falls in 30 s
same,rota-rod performance (number of falls in 30 s),[1]; [12],2.6 ± 0.5 falls in 30 s
same,"ANALGESIC ACTIVITY (degree of analgesia, latency on hot plate)",[2]; max. dose not affecting mice behaviour,"++++ (Latency above 35"" ++++-)"
same,analgesic effect (AUC up to 45 min) compared with reference compounds,"[2]; mouse hot plate, FIG. 5, s.c.",more active than the reference compounds
same,"Efficacy as analgesic (Morphine = 100), AUC (Area Under Curve)","[2]; mouse, in vivo",120
same,"Efficacy as analgesic (Morphine = 100), M.E. (Maximum Analgesic Effect)","[2]; mouse, in vivo",107
same,analgesic effect (AUC up to 45 min) compared with morphine,"[2]; mouse, in vivo, ip",only slightly less active than morphine
same,hot-plate latency,"[2]; mouse, 35 mg/kg i.p., 15 min after treatment",35.5 ± 3.0 s
same,hot-plate latency,"[2]; mouse, 35 mg/kg i.p., 30 min after treatment",33.5 ± 2.6 s
same,hot-plate latency,"[2]; mouse, 35 mg/kg i.p., 45 min after treatment",24.4 ± 1.9 s
same,hot-plate latency,"[2]; mouse, 35 mg/kg s.c., 15 min after treatment",38.7 ± 3.5 s
same,hot-plate latency,"[2]; mouse, 35 mg/kg s.c., 30 min after treatment",36.4 ± 3.2 s
same,hot-plate latency,"[2]; mouse, 35 mg/kg s.c., 45 min after treatment",25.7 ± 2.9 s
same,LD50,[3]; sc,584 µmol/kg
same,"efficacy in writhing test, in words",[4],"less efficacious than ketorolac, are more efficacious than morphine"
same,number of writhes,[4]; 35 mg/kg s.c.,5.5 ± 2.1
same,Efficacy as analgesic (Morphine = 100),[4]; 35 mg/kg s.c.,111
same,percent inhibition,[4]; 35 mg/kg s.c.,83.4%
same,ED50,[4]; sc,15.9 mg/kg and 35.7 µmol/kg
same,"activity in paw-pressure test, in words",[5],almost equivalent analgesia
same,paw-pressure,[5]; [19],86.2 ± 4.0 g
same,paw-pressure,[5]; [20],92.0 ± 6.1 g
same,paw-pressure,[5]; [21],69.0 ± 4.8 g
same,"activity in tail-flick test, in words",[6],active
same,tail-flick,[6]; [19],3.1 ± 0.5 s
same,tail-flick,[6]; [20],4.7 ± 0.6 s
same,tail-flick,[6]; [21],4.3 ± 0.5 s
